Measurements: patent publication US20210317140A1, “Heterocyclic Compounds and Methods of Use” (MEDIVATION TECHNOLOGIES, INC, priority 2013, published 2021)

Assays:
[1] = biological target: T1, BTK (Homo sapiens, UniProt Q06187); assay: BTK kinase assay (HotSpot, 33P ATP); format: biochemical; conditions: 10 μM ATP; for BTK @ 0.1 μM (% Inh): 0.1 μM compound; for BTK @ 1 μM (% Inh): 1 μM compound; for BTK @ 0.01 μM (% Inh): 0.01 μM compound
T1 construct: purchased Reaction Biology Corporation
Experimental: (§1) Compounds of the invention were profiled in a 10 dose IC50 panel against BTK and PI3Kδ, both provided by Reaction Biology Corporation.
BTK assay: In vitro profiling protein kinases was performed using the “HotSpot” assay platform. Briefly, specific kinase/substrate pairs along with required cofactors were prepared in reaction buffer. Compounds were prepared as 10 mM stock solutions in DMSO. Compounds were delivered into the reaction, followed 15-20 minutes later by addition of a mixture of ATP (Sigma, St. Louis Mo.) and ^33P ATP (Perkin Elmer, Waltham Mass.) to a final concentration of 10 μM. […] IC50 values and curve fits were obtained using Prism (GraphPad Software). Buffer Conditions: 20 mM Hepes (pH 7.5), 10 mM MgCl2, 1 mM EGTA, 0.02% Brij35, 0.02 mg/mL BSA, 0.1 mM Na3VO4, 2 mM DTT, 1% DMSO.

[2] = biological target: T2, PI3Kδ (Homo sapiens, UniProt O00329); assay: PI3Kδ kinase assay (HTRF, PIP3 detection); format: biochemical; conditions: 10 μM ATP; for PI3Kδ @ 0.1 μM (% Inh): 0.1 μM compound; for PI3Kδ @ 1 μM (% Inh): 1 μM compound; for PI3Kδ @ 0.01 μM (% Inh): 0.01 μM compound
T2 construct: purchased Reaction Biology Corporation
T2 sequence (O00329 whole entry): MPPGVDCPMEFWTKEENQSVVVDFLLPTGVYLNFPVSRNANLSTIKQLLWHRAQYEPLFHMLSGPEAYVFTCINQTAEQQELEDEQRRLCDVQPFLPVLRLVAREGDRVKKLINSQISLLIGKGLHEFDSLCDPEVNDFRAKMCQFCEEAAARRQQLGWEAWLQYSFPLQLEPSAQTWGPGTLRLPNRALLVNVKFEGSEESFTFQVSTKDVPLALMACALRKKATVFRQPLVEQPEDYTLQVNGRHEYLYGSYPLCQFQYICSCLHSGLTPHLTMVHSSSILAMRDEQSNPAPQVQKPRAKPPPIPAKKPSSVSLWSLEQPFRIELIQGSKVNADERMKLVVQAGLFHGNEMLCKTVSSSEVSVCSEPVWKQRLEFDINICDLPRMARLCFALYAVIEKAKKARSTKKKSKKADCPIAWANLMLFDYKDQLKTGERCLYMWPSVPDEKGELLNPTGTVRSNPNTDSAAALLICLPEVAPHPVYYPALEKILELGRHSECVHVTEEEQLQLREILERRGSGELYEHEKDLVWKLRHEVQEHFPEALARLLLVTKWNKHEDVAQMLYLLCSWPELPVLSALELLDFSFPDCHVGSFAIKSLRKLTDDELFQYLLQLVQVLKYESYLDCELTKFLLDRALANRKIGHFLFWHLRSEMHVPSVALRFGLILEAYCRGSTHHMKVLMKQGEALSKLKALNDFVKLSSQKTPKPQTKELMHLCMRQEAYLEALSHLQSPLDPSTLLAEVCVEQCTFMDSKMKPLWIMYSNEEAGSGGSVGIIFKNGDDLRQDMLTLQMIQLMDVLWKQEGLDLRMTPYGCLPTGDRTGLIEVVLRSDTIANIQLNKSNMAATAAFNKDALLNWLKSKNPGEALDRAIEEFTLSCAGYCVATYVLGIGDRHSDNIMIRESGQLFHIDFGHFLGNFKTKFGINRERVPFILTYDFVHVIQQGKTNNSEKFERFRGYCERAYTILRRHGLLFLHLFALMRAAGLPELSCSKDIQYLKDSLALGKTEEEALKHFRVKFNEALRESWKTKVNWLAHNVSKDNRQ
T2 sequence (P27986 whole entry partner): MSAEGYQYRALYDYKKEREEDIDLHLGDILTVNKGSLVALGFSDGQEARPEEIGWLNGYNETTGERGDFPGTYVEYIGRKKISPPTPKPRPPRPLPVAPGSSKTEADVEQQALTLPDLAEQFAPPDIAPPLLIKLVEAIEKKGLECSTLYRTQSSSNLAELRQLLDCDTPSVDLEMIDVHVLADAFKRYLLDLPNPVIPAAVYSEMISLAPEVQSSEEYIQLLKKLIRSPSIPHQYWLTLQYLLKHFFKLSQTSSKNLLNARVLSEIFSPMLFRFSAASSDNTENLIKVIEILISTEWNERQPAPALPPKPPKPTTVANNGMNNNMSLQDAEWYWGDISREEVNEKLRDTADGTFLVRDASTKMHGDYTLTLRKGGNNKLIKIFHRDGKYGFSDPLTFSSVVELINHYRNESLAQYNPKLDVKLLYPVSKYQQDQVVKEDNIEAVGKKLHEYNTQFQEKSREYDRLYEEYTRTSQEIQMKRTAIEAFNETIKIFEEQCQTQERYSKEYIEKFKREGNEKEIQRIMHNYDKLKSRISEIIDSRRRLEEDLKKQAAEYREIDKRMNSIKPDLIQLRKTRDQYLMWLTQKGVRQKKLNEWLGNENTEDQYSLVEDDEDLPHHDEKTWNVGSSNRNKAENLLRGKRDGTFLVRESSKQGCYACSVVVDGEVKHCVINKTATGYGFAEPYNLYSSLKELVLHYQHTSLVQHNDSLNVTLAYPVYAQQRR
Text: as §1
PI3Kδ assay: The PIP3 product is detected by displacement of biotin-PIP3 from an energy transfer complex consisting of Europium labeled anti-GST monoclonal antibody, a GST-tagged pleckstrin homology (PH) domain, biotinylated PIP3 and Streptavidin-Allophycocyanin (APC). […] The PIP3 product formed by PI 3-Kinase(h) activity displaces biotin-PIP3 from the complex resulting in a loss of energy transfer and thus a decrease in signal. This is a 3-step reaction: First, the kinase reaction with PIP2 substrate is carried out in the presence of ATP (10 μM), and the reaction is quenched with stop Solution, and then finally detect by adding Detection Mixture followed by incubation (10 min). Reaction procedure: 1) Prepare substrate in freshly prepared Reaction Buffer. 2) Deliver kinase into the substrate solution and gently mix. 3) Deliver compounds in 100% DMSO (1 μM) into the kinase reaction mixture by Acoustic technology (Echo550; nanoliter range), incubate for 10 min at RT. 4) Deliver ATP into the reaction mixture to initiate the reaction. 5) Incubate for 30 min at 30° C. 6) Quench the reaction with Stop Solution. 7) Add Detection Mixture, and incubate for overnight. […] The emission ratio is converted into μM PIP3 production based on PIP3 standard curves. The nonlinear regression to obtain the standard curve and IC50 values are performed using Graphpad Prism software. Assay Buffer: HEPES 50 mM (pH7.0), NaN3 0.02%, BSA 0.01%, Orthovanadate 0.1 mM, 1% DMSO. Detection buffer: HEPES 10 mM (pH7.0), BSA 0.02%, KF 0.16 M, EDTA 4 mM. Substrate: 10 μM PIP2 substrate (PI(4,5)P2).

T1 sequence (Q06187 whole entry): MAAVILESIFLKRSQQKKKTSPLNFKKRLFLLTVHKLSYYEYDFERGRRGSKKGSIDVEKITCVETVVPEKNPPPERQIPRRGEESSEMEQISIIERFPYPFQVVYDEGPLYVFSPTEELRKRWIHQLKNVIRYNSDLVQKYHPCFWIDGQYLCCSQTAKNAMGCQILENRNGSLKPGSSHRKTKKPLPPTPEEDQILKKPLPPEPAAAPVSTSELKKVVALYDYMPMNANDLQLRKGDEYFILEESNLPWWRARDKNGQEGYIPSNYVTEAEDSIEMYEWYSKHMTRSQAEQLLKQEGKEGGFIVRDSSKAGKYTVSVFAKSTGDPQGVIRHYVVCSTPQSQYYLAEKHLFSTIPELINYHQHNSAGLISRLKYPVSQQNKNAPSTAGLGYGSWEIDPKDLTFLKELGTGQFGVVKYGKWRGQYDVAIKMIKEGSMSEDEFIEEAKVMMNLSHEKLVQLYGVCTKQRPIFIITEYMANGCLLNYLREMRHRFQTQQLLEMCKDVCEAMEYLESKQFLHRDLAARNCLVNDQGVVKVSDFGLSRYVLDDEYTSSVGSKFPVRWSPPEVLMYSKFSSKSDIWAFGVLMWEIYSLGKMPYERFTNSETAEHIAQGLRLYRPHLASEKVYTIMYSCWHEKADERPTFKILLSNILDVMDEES

SMILES	BTK @ 0.1 μM (% Inh) [1] [% Inh]	BTK @ 1 μM (% Inh) [1] [% Inh]	PI3Kδ @ 0.1 μM (% Inh) [2] [% Inh]	PI3Kδ @ 1 μM (% Inh) [2] [% Inh]	BTK @ 0.01 μM (% Inh) [1] [% Inh]	PI3Kδ @ 0.01 μM (% Inh) [2] [% Inh]
CCOc1c(Cl)cc(-c2nn(C3Cc4ccccc4C3)c3ncnc(N)c23)cc1OC [Compound No. 77, 3-(3-chloro-4-ethoxy-5-methoxyphenyl)-1-(2,3-dihydro-1H-inden-2-yl)-1H-pyrazolo[3,4-d]pyrimidin-4-amine]	24.85	76.64	−1.66	16.5		
Nc1ncnc2c1c(-c1cccc3[nH]ccc13)nn2C1Cc2ccccc2C1 [Compound No. 78, 1-(2,3-dihydro-1H-inden-2-yl)-3-(1H-indol-4-yl)-1H-pyrazolo[3,4-d]pyrimidin-4-amine]	18.18	54.62	4.96	43.86		
CCOc1cc(-c2nn(C3Cc4ccccc4C3)c3ncnc(N)c23)cc(Cl)c1OC(C)C [Compound No. 79, 3-[3-chloro-5-ethoxy-4-(propan-2-yloxy)phenyl]-1-(2,3-dihydro-1H-inden-2-yl)-1H-pyrazolo[3,4-d]pyrimidin-4-amine]	7.61	9.02	6.45	12.1		
COc1cc(-c2nn(C3Cc4ccccc4C3)c3ncnc(N)c23)cc(Cl)c1OC [Compound No. 80, 3-(3-chloro-4,5-dimethoxyphenyl)-1-(2,3-dihydro-1H-inden-2-yl)-1H-pyrazolo[3,4-d]pyrimidin-4-amine]	45.74	68.21	5.1	29.99		
Cc1nc2ccc(-c3nn(C4Cc5ccccc5C4)c4ncnc(N)c34)cc2[nH]1 [Compound No. 82, 1-(2,3-dihydro-1H-inden-2-yl)-3-(2-methyl-1H-1,3-benzodiazol-6-yl)-1H-pyrazolo[3,4-d]pyrimidin-4-amine]	11.64	30.18	41.76	82.95		
COc1ccc(-c2nn(C3Cc4ccccc4C3)c3ncnc(N)c23)c(OC)c1OC [Compound No. 83, 1-(2,3-dihydro-1H-inden-2-yl)-3-(2,3,4-trimethoxyphenyl)-1H-pyrazolo[3,4-d]pyrimidin-4-amine]	10.79	18.4	−5.17	13.54		
Nc1ncnc2c1c(-c1cc(F)c(F)c(F)c1)nn2C1Cc2ccccc2C1 [Compound No. 86, 1-(2,3-dihydro-1H-inden-2-yl)-3-(3,4,5-trifluorophenyl)-1H-pyrazolo[3,4-d]pyrimidin-4-amine]	21.34		20.84		8.08	17.21
Nc1cc(-c2nn(C3Cc4ccccc4C3)c3ncnc(N)c23)ccc1F [Compound No. 87, 3-(3-amino-4-fluorophenyl)-1-(2,3-dihydro-1H-inden-2-yl)-1H-pyrazolo[3,4-d]pyrimidin-4-amine]	78.95		8.16		34.28	13.47
Nc1ncnc2c1c(-c1cccc(F)c1)nn2C1Cc2ccccc2C1 [Compound No. 88, 1-(2,3-dihydro-1H-inden-2-yl)-3-(3-fluorophenyl)-1H-pyrazolo[3,4-d]pyrimidin-4-amine]	17.55		15.89		7.67	18.98
Nc1ncnc2c1c(-c1ccc(F)c(F)c1)nn2C1Cc2ccccc2C1 [Compound No. 89, 3-(3,4-difluorophenyl)-1-(2,3-dihydro-1H-inden-2-yl)-1H-pyrazolo[3,4-d]pyrimidin-4-amine]	30.58		17.95		8.84	0.76
CCCCOc1cc(-c2nn(C3Cc4ccccc4C3)c3ncnc(N)c23)ccc1OC [Compound No. 90, 3-(3-butoxy-4-methoxyphenyl)-1-(2,3-dihydro-1H-inden-2-yl)-1H-pyrazolo[3,4-d]pyrimidin-4-amine]	6.79		44.39		7.39	9.23
COc1cc(-c2nn(C3Cc4ccccc4C3)c3ncnc(N)c23)cc(F)c1F [Compound No. 91, 3-(3,4-difluoro-5-methoxyphenyl)-1-(2,3-dihydro-1H-inden-2-yl)-1H-pyrazolo[3,4-d]pyrimidin-4-amine]	33.72		19.59		8	−1.19
COc1cc(-c2nn(C3Cc4ccccc4C3)c3ncnc(N)c23)cc(C(F)(F)F)c1F [Compound No. 92, 1-(2,3-dihydro-1H-inden-2-yl)-3-[4-fluoro-3-methoxy-5-(trifluoromethyl)phenyl]-1H-pyrazolo[3,4-d]pyrimidin-4-amine]	3.3		9.31		1.24	11.71
N#Cc1ccc(-c2nn(C3Cc4ccccc4C3)c3ncnc(N)c23)cc1O [Compound No. 94, 4-[4-amino-1-(2,3-dihydro-1H-inden-2-yl)-1H-pyrazolo[3,4-d]pyrimidin-3-yl]-2-hydroxybenzonitrile]	22.48		71.5		8.16	29.77
COc1c(Cl)ccc(-c2nn(C3Cc4ccccc4C3)c3ncnc(N)c23)c1Cl [Compound No. 95, 3-(2,4-dichloro-3-methoxyphenyl)-1-(2,3-dihydro-1H-inden-2-yl)-1H-pyrazolo[3,4-d]pyrimidin-4-amine]	11.01		25.54		7	3.09
Nc1ccc(-c2nn(C3Cc4ccccc4C3)c3ncnc(N)c23)cn1 [Compound No. 96, 5-[4-amino-1-(2,3-dihydro-1H-inden-2-yl)-1H-pyrazolo[3,4-d]pyrimidin-3-yl]pyridin-2-amine]	12.19		40.18		7.68	32.92
N#Cc1cc(-c2nn(C3Cc4ccccc4C3)c3ncnc(N)c23)ccc1F [Compound No. 97, 5-[4-amino-1-(2,3-dihydro-1H-inden-2-yl)-1H-pyrazolo[3,4-d]pyrimidin-3-yl]-2-fluorobenzonitrile]	14.06		29.59		11.7	24.66
Cn1ncc2c(-c3nn(C4Cc5ccccc5C4)c4ncnc(N)c34)cccc21 [Compound No. 98, 1-(2,3-dihydro-1H-inden-2-yl)-3-(1-methyl-1H-indazol-4-yl)-1H-pyrazolo[3,4-d]pyrimidin-4-amine]	12.62		19.14		8.24	14.09
